Measurements published in patent US9981986B2, “Antimicrobial compounds” (OXFORD UNIVERSITY INNOVATION LIMITED, priority 2012, dated 2018).
≈ marks a conversion by molar mass, not a printed value.

What was measured:
[1] = test system: Staphylococcus aureus N.C.T.C. 6571; assay: hole-plate method, inhibition zones, S. aureus; assay type: cell-based; details: inhibition zone diameter
Description: (§1) Various compounds illustrative of the compounds of the present invention were synthesised and tested for their bioactivity. Microbiological assays were performed by the hole-plate method with the test organism Staphylococcus aureus N.C.T.C. 6571 or E. coli X580. […] The diameters of the resultant inhibition zones were measured.

E. coli X580 = assay: hole-plate method, inhibition zones, E. coli; assay type: cell-based; details: inhibition zone diameter
Description: as §1

[2] = test system: E. faecalis 1, ATCC29212 VanS (vancomycin susceptible); assay: MIC determination (bacteria), E1; assay type: cell-based
Description: (§2) MIC Determination (Bacteria);
(§3) MICs were determined based on Clinical and Laboratory Standards Institute (CLSI) methodology (Methods for dilution antimicrobial susceptibility tests for bacteria that grow aerobically; Approved Standard—seventh edition. 2006, M7-A7, CLSI, Wayne Pa.) by a 2-fold broth dilution technique in Mueller Hinton (pH7.4 Biorad). For S. pneumoniae, the medium was supplemented with 2.5% laked horse blood. For H. influenzae, the medium was haemophilus test medium (H.T.M.). Overnight cultures were diluted to obtain the final inoculum of 10^5 cfu/well. Incubation was 37° C. overnight in ambient air. The MIC was defined as the lowest concentration which inhibited all visual growth and expressed in μg/ml. For each bacterial species, all of the molecules were tested in the same experiment in order to give a head-to-head comparison.

S. pneumonia UPPS = biological target: T1, S. pneumonia UPPS (Streptococcus pneumoniae serotype 4, UniProt Q97SR4); assay: In vitro activity against S. pneumonia UPPS; assay type: biochemical; details: read-out: UPP IC50
T1 sequence (Q97SR4 1-252): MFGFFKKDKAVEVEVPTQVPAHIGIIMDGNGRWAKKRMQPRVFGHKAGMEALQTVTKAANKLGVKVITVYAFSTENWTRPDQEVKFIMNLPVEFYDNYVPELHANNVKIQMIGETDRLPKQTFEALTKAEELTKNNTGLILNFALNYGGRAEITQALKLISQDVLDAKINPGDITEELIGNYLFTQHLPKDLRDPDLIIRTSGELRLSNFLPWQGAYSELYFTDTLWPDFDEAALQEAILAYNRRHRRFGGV
Text: (§4) These properties can be determined according to techniques that are well known in the art.

[3] = test system: S. pneumonia 9, (multi-drug resistant); assay: MIC determination (bacteria), P9 / P9B; assay type: cell-based; details: for MIC P9: S. pneumonia 9, multi-drug resistant; for MIC P9B: S. pneumonia 9 in presence of 2.5% horse blood
Description: as §2, §3

[4] = test system: S. aureus 1, ATCC13709 in vivo (methicillin sensitive); assay: MIC determination (bacteria), S1; assay type: cell-based
Description: as §2, §3

S. aureus 4, Oxford = assay: MIC determination (bacteria), S4; assay type: cell-based
Description: as §2, §3

[5] = test system: E. faecium 1, VanA (vancomycin resistant); assay: MIC determination (bacteria), E2; assay type: cell-based
Description: as §2, §3

E. Coli RNAP = E. Coli RNAP (Escherichia coli, UniProt P0A8T7+P0A8V2); assay: In vitro activity against E. Coli RNAP; assay type: biochemical; details: read-out: RNA IC50
Sequence of E. Coli RNAP (P0A8V2 whole entry): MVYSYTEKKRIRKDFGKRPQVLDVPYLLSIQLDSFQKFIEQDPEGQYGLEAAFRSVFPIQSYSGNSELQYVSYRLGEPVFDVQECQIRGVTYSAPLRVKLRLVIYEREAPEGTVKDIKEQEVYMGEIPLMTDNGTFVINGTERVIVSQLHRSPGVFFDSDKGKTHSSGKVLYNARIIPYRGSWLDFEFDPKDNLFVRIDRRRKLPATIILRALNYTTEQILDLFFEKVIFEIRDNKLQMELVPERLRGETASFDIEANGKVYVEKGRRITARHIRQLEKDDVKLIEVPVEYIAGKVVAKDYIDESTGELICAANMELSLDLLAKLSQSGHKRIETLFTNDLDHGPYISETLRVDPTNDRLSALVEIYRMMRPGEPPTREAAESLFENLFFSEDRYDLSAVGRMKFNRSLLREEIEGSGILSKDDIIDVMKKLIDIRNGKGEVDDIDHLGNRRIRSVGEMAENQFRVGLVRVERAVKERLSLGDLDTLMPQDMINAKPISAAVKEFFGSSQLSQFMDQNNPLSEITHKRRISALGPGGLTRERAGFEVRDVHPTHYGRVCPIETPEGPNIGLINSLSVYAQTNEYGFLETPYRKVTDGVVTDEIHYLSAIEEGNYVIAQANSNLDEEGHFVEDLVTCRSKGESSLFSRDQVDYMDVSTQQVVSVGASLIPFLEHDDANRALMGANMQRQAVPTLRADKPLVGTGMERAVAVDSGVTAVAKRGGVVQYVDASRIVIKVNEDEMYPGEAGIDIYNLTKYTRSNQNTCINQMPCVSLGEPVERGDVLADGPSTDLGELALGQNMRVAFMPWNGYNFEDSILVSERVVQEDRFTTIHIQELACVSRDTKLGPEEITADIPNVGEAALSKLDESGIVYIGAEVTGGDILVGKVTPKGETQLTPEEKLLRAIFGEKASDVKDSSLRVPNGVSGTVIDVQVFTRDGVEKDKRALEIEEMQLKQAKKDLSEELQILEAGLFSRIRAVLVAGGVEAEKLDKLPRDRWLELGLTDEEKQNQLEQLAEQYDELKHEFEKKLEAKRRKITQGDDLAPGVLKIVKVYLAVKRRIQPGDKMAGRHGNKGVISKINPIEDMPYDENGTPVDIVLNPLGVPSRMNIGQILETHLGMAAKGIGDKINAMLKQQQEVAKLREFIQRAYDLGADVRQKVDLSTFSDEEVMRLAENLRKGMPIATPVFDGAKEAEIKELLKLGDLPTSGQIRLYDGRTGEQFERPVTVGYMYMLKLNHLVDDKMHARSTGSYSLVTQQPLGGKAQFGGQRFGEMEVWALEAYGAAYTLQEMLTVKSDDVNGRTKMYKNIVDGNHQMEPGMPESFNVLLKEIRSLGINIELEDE
Sequence of E. Coli RNAP (P0A8T7 whole entry): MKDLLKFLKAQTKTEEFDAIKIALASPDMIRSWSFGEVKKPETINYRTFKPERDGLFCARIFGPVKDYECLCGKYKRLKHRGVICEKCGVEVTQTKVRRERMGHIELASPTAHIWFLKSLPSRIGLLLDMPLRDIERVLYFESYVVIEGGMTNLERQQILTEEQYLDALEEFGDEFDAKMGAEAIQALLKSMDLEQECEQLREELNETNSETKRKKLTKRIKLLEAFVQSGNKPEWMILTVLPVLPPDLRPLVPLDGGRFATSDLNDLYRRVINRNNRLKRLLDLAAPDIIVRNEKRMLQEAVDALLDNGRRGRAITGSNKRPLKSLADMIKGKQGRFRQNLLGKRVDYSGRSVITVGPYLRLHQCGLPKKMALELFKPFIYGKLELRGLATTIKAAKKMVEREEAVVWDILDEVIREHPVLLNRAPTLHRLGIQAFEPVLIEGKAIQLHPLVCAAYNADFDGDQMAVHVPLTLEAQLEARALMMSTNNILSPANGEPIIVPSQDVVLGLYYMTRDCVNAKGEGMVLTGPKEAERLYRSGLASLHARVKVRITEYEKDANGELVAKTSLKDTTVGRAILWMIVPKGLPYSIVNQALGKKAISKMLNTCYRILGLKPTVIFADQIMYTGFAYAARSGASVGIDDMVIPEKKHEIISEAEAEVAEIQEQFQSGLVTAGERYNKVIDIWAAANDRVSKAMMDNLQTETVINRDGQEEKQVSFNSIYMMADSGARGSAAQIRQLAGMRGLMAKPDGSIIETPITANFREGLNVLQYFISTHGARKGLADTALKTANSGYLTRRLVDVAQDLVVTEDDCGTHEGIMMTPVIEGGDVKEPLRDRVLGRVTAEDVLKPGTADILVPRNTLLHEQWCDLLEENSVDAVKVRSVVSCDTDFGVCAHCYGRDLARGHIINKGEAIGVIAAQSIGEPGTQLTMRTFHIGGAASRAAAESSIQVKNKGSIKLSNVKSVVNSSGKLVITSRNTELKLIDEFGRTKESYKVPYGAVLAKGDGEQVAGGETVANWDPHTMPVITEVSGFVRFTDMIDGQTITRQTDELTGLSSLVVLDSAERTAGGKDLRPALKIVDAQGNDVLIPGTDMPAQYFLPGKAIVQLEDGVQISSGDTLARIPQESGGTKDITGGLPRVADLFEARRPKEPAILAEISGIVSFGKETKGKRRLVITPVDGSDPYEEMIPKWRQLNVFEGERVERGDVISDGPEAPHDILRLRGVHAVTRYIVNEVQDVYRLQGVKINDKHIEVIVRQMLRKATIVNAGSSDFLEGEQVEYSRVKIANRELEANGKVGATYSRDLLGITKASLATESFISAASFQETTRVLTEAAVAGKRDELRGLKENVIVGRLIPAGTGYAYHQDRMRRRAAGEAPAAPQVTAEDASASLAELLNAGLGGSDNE
Sequence of E. Coli RNAP (P0A7Z4 whole entry partner): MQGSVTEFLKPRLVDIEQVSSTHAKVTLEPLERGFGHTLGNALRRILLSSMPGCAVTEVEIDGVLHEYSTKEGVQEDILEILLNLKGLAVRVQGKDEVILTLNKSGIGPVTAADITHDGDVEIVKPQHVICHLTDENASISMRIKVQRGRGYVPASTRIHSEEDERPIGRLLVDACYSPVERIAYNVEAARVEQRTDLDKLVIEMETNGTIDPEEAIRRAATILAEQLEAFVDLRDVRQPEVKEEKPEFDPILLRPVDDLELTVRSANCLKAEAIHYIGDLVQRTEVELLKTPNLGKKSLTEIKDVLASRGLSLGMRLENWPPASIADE
Sequence of E. Coli RNAP (P0A800 whole entry partner): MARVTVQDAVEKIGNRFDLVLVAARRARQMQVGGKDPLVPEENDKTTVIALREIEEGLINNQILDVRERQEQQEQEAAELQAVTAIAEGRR
Text: as §4

[6] = test system: human embryonic kidney 293 cells; assay: in vitro toxicities against human embryonic kidney 293 cells; assay type: cell-based
Text: as §4

[7] = test system: S. aureus 26, ATCC25923 (vancomycin susceptible); assay: MIC determination (bacteria), S26; assay type: cell-based
Description: as §2, §3

[8] = test system: S. aureus 2, (MRSA in vivo); assay: MIC determination (bacteria), S2; assay type: cell-based
Description: as §2, §3

[9] = test system: human peripheral blood cells; assay: in vitro toxicities human peripheral blood cells; assay type: cell-based
Text: as §4

[10] = test system: H. influenzae 3, ATCC31517 MMSA; assay: MIC determination (bacteria), H3; assay type: cell-based
Description: as §2, §3

S. aureus membrane = assay: In vitro activity in depolarization of S. aureus membrane; assay type: cell-based; details: read-out: DEP IC50
Text: as §4

Candida albicans = assay: MIC determination (fungus), Candida albicans; assay type: cell-based
Description: MIC Determination (Fungus); MICs were determined for the antifungus by microdilution methods using RPMI 1640 medium buffered with morpholinopropanesulfonic acid (MOPS) and supplemented with L-glutamine as described by CLSI procedures (M27-A method) (Reference method for broth dilution antifungal susceptibility testing of yeasts; Approved standard—[…]. 2006, M27-A2, CLSI, Wayne Pa.).

[11] = test system: H. influenzae 4, LS2 Efflux ko; assay: MIC determination (bacteria), H4; assay type: cell-based
Description: as §2, §3

[12] = test system: mammalian_red blood cell membrane; assay: In vitro mammalian red blood cell membrane lysis activity; assay type: cell-based; details: read-out: RBC IC50
Text: as §4

[13] = test system: S. pneumonia 1, ATCC49619 (erythromycin susceptible); assay: MIC determination (bacteria), P1; assay type: cell-based
Description: as §2, §3

[14] = assay type: physicochemical; details: pH 7.4
Text: as §4

plasma protein = assay type: in vitro ADME
Text: as §4

CCOC(=O)C1=C(O)C2CS[C@@H](c3ccc([N+](=O)[O-])cc3)N2C1=O (stereo partly shown)
Bioactivity (mm) S. aureus (4 mg/ml) [1]: 16 mm

CCOC(=O)CC(=O)N1C(c2ccc(F)cc2Cl)SC[C@@H]1C(=O)OC (stereo partly shown)
Bioactivity (mm) E. coli (4 mg/ml) (E. coli X580; 4 mg/ml): 16 mm

CCOC(=O)C1=C(O)C2CS[C@@H](c3ccc(F)cc3Cl)N2C1=O (stereo partly shown)
Bioactivity (mm) S. aureus (4 mg/ml) [1]: 18 mm

O=C(NC12CC3CC(CC(C3)C1)C2)C1=C(O)C2CS[C@@H](c3ccccc3)N2C1=O (stereo partly shown)
Bioactivity (mm) S. aureus 0.01 mg/ml [1]: 22 mm
Bioactivity (mm) E. coli 0.001 mg/ml (E. coli X580; 0.001 mg/ml): 15 mm
Bioactivity (mm) E. coli 0.01 mg/ml (E. coli X580): 15 mm

O=C(NC12CC3CC(CC(C3)C1)C2)C1=C(O)C2CS[C@@H](c3ccc(F)cc3)N2C1=O (stereo partly shown)
Bioactivity (mm) S. aureus 0.001 mg/ml [1]: 21 mm
Bioactivity (mm) S. aureus 0.01 mg/ml [1]: 27 mm
Bioactivity (mm) E. coli 0.01 mg/ml (E. coli X580): 14 mm

O=C(NC12CC3CC(CC(C3)C1)C2)C1=C(O)C2CS[C@@H](c3ccc([N+](=O)[O-])cc3)N2C1=O (stereo partly shown)
Bioactivity (mm) S. aureus 0.001 mg/ml [1]: 19 mm
Bioactivity (mm) S. aureus 0.01 mg/ml [1]: 25 mm
Bioactivity (mm) E. coli 0.01 mg/ml (E. coli X580): 14 mm

O=C(NC12CC3CC(CC(C3)C1)C2)C1=C(O)C2CS[C@@H](c3ccc(F)cc3Cl)N2C1=O (stereo partly shown)
Bioactivity (mm) S. aureus 0.001 mg/ml [1]: 21 mm
Bioactivity (mm) S. aureus 0.01 mg/ml [1]: 25 mm
Bioactivity (mm) E. coli 0.01 mg/ml (E. coli X580): 14 mm

CCOC(=O)C1=C(O)C2CSC(c3cccc(Br)c3)N2C1=O (stereo not shown)
Bioactivity (mm) S. aureus (4 mg/ml) ([1]; Cm): 2.0 Cm

CCOC(=O)C1=C(O)C2CSC(c3ccc(Br)cc3)N2C1=O (stereo not shown)
Bioactivity (mm) S. aureus (4 mg/ml) ([1]; Cm): 1.7 Cm

CCOC(=O)C1=C(O)C2CSC(c3ccc(CO[Si](C)(C)C(C)(C)C)cc3)N2C1=O (stereo not shown)
Bioactivity (mm) S. aureus (4 mg/ml) ([1]; Cm): 2.3 Cm

CC(C)(C)[Si](C)(C)OCc1ccc([C@@H]2SCC3C(O)=C(C(=O)NC45CC6CC(CC(C6)C4)C5)C(=O)N32)cc1 (stereo partly shown)
Bioactivity (mm) S. aureus 0.25 mg/ml [1]: 12 mm
Bioactivity (mm) S. aureus 0.5 mg/ml [1]: 13 mm

Cc1cc(Cl)ccc1NC(=O)C1=C(O)C2CS[C@@H](c3ccc(Br)cc3)N2C1=O (stereo partly shown)
Bioactivity (mm) S. aureus 0.25 mg/ml [1]: 25 mm
Bioactivity (mm) S. aureus 0.5 mg/ml [1]: 26 mm

CC(C)(C)C1OCC2(C)C(=O)C(C(=O)NC34CC5CC(CC(C5)C3)C4)C(=O)N12 (racemic) [(±)-2A]
MIC E1 [2]: 1 µg/mL (≈ 2.57 µM)
IC50 (S. pneumonia UPPS): 0.38 µM
MIC P9 [3]: 1 µg/mL (≈ 2.57 µM)
MIC P9B [3]: 1 µg/mL
MIC S1 [4]: 1 µg/mL (≈ 2.57 µM)
MIC S4 (S. aureus 4, Oxford): 1 µg/mL (≈ 2.57 µM)
MIC E2 [5]: 1 µg/mL (≈ 2.57 µM)
IC50 (E. Coli RNAP): 17 µM
HEK LD50 [6]: 30.3 µM
MIC S26 [7]: 2 µg/mL (≈ 5.15 µM)
MIC S2 [8]: 1 µg/mL (≈ 2.57 µM)
PMB LD50 [9]: 30.3 µM
MIC H3 [10]: 2 µg/mL (≈ 5.15 µM)
IC50 (S. aureus membrane): 10.8 µM
CAN MIC (Candida albicans): >32 µg/mL
MIC H4 [11]: 1 µg/mL (≈ 2.57 µM)
IC50 [12]: > 100 µM
MIC P1 [13]: 1 µg/mL (≈ 2.57 µM)
SOL [14]: 75 to 150 µM

CC(C)(C)C1OCC2(C)C(O)=C(C(=O)NCC3CCCCC3)C(=O)N12 (racemic) [(±)-2E]
MIC E1 [2]: 2 µg/mL (≈ 5.71 µM)
IC50 (S. pneumonia UPPS): 0.68 µM
MIC P9 [3]: 1 µg/mL (≈ 2.85 µM)
MIC P9B [3]: 1 µg/mL
MIC S1 [4]: 4 µg/mL (≈ 11.4 µM)
MIC S4 (S. aureus 4, Oxford): 4 µg/mL (≈ 11.4 µM)
MIC E2 [5]: 1 µg/mL (≈ 2.85 µM)
PPB (plasma protein): 96.6%
IC50 (E. Coli RNAP): 31 µM
HEK LD50 [6]: 90.9 µM
MIC S26 [7]: 4 µg/mL (≈ 11.4 µM)
MIC S2 [8]: 2 µg/mL (≈ 5.71 µM)
PMB LD50 [9]: 90.9 µM
MIC H3 [10]: 4 µg/mL (≈ 11.4 µM)
IC50 (S. aureus membrane): 84.3 µM
CAN MIC (Candida albicans): >32 µg/mL
MIC H4 [11]: 0.12 µg/mL (≈ 0.342 µM)
IC50 [12]: > 100 µM
MIC P1 [13]: 2 µg/mL (≈ 5.71 µM)
SOL [14]: >300 µM

CCOC(=O)C12C(=O)C(=C(O)CC34CC5CC(C)(CC(C)(C5)C3)C4)C(=O)N1C(C(C)(C)C)OC2C (racemic) [Compound 6C]
MIC E1 [2]: 2 µg/mL (≈ 4.1 µM)
IC50 (S. pneumonia UPPS): 3.2 µM
MIC P9 [3]: 0.5 µg/mL (≈ 1.03 µM)
MIC P9B [3]: 1 µg/mL
MIC S1 [4]: 2 µg/mL (≈ 4.1 µM)
MIC S4 (S. aureus 4, Oxford): 2 µg/mL (≈ 4.1 µM)
MIC E2 [5]: 1 µg/mL (≈ 2.05 µM)
PPB (plasma protein): 99.8%
IC50 (E. Coli RNAP): 4 µM
HEK LD50 [6]: 90.9 µM
MIC S26 [7]: 2 µg/mL (≈ 4.1 µM)
MIC S2 [8]: 1 µg/mL (≈ 2.05 µM)
PMB LD50 [9]: >90.9 µM
MIC H3 [10]: 64 µg/mL (≈ 131 µM)
IC50 (S. aureus membrane): > 100 µM
CAN MIC (Candida albicans): >32 µg/mL
MIC H4 [11]: 0.25 µg/mL (≈ 0.513 µM)
IC50 [12]: > 100 µM
MIC P1 [13]: 0.5 µg/mL (≈ 1.03 µM)
SOL [14]: >300 µM

CCOC(=O)C12C(=O)C(=C(O)CC(C)(C)CC(=O)OCCC34CC5CC(CC(C5)C3)C4)C(=O)N1C(C(C)(C)C)OC2C (racemic) [Compound 6G]
MIC E1 [2]: 1 µg/mL (≈ 1.7 µM)
IC50 (S. pneumonia UPPS): 1.9 µM
MIC P9 [3]: 1 µg/mL (≈ 1.7 µM)
MIC P9B [3]: 4 µg/mL
MIC S1 [4]: 0.5 µg/mL (≈ 0.851 µM)
MIC S4 (S. aureus 4, Oxford): 1 µg/mL (≈ 1.7 µM)
MIC E2 [5]: 0.5 µg/mL (≈ 0.851 µM)
IC50 (E. Coli RNAP): 2.4 µM
HEK LD50 [6]: 10.1 µM
MIC S26 [7]: 1 µg/mL (≈ 1.7 µM)
MIC S2 [8]: 0.5 µg/mL (≈ 0.851 µM)
PMB LD50 [9]: >90.9 µM
MIC H3 [10]: >64 µg/mL
IC50 (S. aureus membrane): > 100 µM
CAN MIC (Candida albicans): >32 µg/mL
MIC H4 [11]: 2 µg/mL (≈ 3.4 µM)
IC50 [12]: > 100 µM
MIC P1 [13]: 2 µg/mL (≈ 3.4 µM)
SOL [14]: >300 µM
